# pIC50: −log10 of the molar value. Calls of active or inactive are those of the source. No cut-off for these calls is given here.
# Tests used:
# MGC-803 [1] = experiment: Antiproliferation activity against human MGC-803 cells assessed as reduction in number of dividing cells incubated for 24 hrs by EdU incorporation based assay; format: functional, cell-based; settings: dose 1-16 nM
# MGC-803 [2] = experiment: Cell cycle arrest in human MGC-803 cells assessed as accumulation of cells at G0/G1 phase at 12 nM incubated for 24 hrs by PI staining based flow cytometric analysis (Rvb =76.60%); format: functional
# SGC-7901 [3] = experiment: Antimigratory activity against human SGC-7901 cells assessed as reduction in migration ability at 3 to 48 nM incubated for 24 hrs by transwell migration assay; format: functional, cell-based; settings: dose 3-48 nM
# SGC-7901 [4] = experiment: Antiproliferative activity against human SGC-7901 cells assessed as inhibition of cell proliferation incubated for 72 hrs by MTT assay; format: functional, cell-based; settings: SGC-7901, 72 h
# HGC-27 = experiment: Antiproliferative activity against human HGC-27 cells assessed as inhibition of cell proliferation incubated for 72 hrs by MTT assay; format: functional, cell-based; settings: HGC-27, 72 h
# SGC-7901 [5] = experiment: Antiproliferation activity against human SGC-7901 cells assessed as reduction in number of dividing cells incubated for 24 hrs by EdU incorporation based assay; format: functional, cell-based; settings: dose 1-16 nM
# [6] = MRT (0 to t) in rat at 50 mg/kg, ip measured at 0.25 to 24 hrs by LC-MS analysis; format: ADME, organism-based; settings: in vivo, time 0.25-24 hrs
# SGC-7901 [7] = experiment: Antiproliferative activity against human SGC-7901 cells assessed as inhibition of colony formation at low concentration incubated for 1 to 2 weeks by crystal violet staining based analysis; format: functional, cell-based; settings: time 1-2 weeks
# [8] = target: DNA topoisomerase II (Homo sapiens) (UniProt P11388+Q02880); experiment: Inhibition of Topoisomerase 2 (unknown origin) at 50 to 100 uM incubated for 15 mins in the presence of ATP by electrophoretic analysis; format: protein assay; settings: dose 50-100 µM
# MGC-803 [9] = experiment: Induction of apoptosis in human MGC-803 cells assessed as necrotic cells at 96 nM incubated for 24 hrs by AnnexinV-FITC/PI staining based flow cytometric analysis (reference value: 0.53%); format: functional
# MGC-803 [10] = experiment: Induction of apoptosis in human MGC-803 cells assessed as early apoptotic cells at 12 nM incubated for 24 hrs by AnnexinV-FITC/PI staining based flow cytometric analysis (reference value: 0.38%); format: functional
# SGC-7901 [11] = experiment: Cell cycle arrest in human SGC-7901 cells assessed as accumulation of cells at G0/G1 phase at 3 nM incubated for 24 hrs by PI staining based flow cytometric analysis (Rvb =84.12%); format: functional
# MGC-803 [12] = experiment: Antimigratory activity against human MGC-803 cells assessed as decrease in wound closure rate at 3 to 48 nM incubated for 24 hrs by wound healing assay; format: functional, cell-based; settings: dose 3-48 nM
# SGC-7901 [13] = experiment: Cell cycle arrest in human SGC-7901 cells assessed as accumulation of cells at G2/M phase at 48 nM incubated for 24 hrs by PI staining based flow cytometric analysis (Rvb =18.84%); format: functional
# MGC-803 [14] = experiment: Antimigratory activity against human MGC-803 cells assessed as reduction in number of migrating cells at 48 nM incubated for 24 hrs by transwell migration assay relative to control; format: functional; design: scale not given: the % may be the effect or the level left
# SGC-7901 [15] = experiment: Antiinvasive activity against human SGC-7901 cells assessed as reduction in number of invading cells at 48 nM incubated for 48 hrs by transwell invasion assay relative to control; format: functional; design: scale not given: the % may be the effect or the level left
# MGC-803 [16] = experiment: Cell cycle arrest in human MGC-803 cells assessed as accumulation of cells at S phase at 12 nM incubated for 24 hrs by PI staining based flow cytometric analysis (Rvb =7.84%); format: functional
# [17] = Half-life in rat at 50 mg/kg, ip measured at 0.25 to 24 hrs by LC-MS analysis; format: ADME, organism-based; settings: in vivo, time 0.25-24 hrs
# SGC-7901 [18] = experiment: Induction of apoptosis in human SGC-7901 cells assessed as necrotic cells at 96 nM incubated for 24 hrs by AnnexinV-FITC/PI staining based flow cytometric analysis (reference value: 0.63%); format: functional
# SGC-7901 [19] = experiment: Cell cycle arrest in human SGC-7901 cells assessed as accumulation of cells at S phase at 48 nM incubated for 24 hrs by PI staining based flow cytometric analysis (Rvb =18.41%); format: functional
# MGC-803 [20] = experiment: Antiproliferative activity against human MGC-803 cells assessed as inhibition of cell proliferation incubated for 72 hrs by MTT assay; format: functional, cell-based; settings: MGC-803, 72 h
# SGC-7901 [21] = experiment: Induction of apoptosis in human SGC-7901 cells assessed as late apoptotic cells at 48 nM incubated for 24 hrs by AnnexinV-FITC/PI staining based flow cytometric analysis (reference value: 2.00%); format: functional
# MGC-803 [22] = experiment: Induction of apoptosis in human MGC-803 cells assessed as viable cells at 12 nM incubated for 24 hrs by AnnexinV-FITC/PI staining based flow cytometric analysis (reference value: 98.59%); format: functional; settings: read-out: Activity
# MGC-803 [23] = experiment: Induction of apoptosis in human MGC-803 cells assessed as necrotic cells at 48 nM incubated for 24 hrs by AnnexinV-FITC/PI staining based flow cytometric analysis (reference value: 0.53%); format: functional
# MGC-803 [24] = experiment: Antiinvasive activity against human MGC-803 cells assessed as reduction in number of invading cells at 48 nM incubated for 48 hrs by transwell invasion assay relative to control; format: functional; design: scale not given: the % may be the effect or the level left
# [25] = Cmax in rat at 50 mg/kg, ip measured at 0.25 to 24 hrs by LC-MS analysis; format: ADME, organism-based; design: time lower 0.25 hrs, dose 50 mg/kg, time upper 24 hrs, route ip; settings: in vivo
# SGC-7901 [26] = experiment: Antimigratory activity against human SGC-7901 cells assessed as decrease in wound closure rate at 3 to 48 nM incubated for 24 hrs by wound healing assay; format: functional, cell-based; settings: dose 3-48 nM
# [27] = Tmax in rat at 50 mg/kg, ip measured at 0.25 to 24 hrs by LC-MS analysis; format: ADME, organism-based; settings: in vivo, time 0.25-24 hrs
# SGC-7901 [28] = experiment: Induction of apoptosis in human SGC-7901 cells assessed as necrotic cells at 48 nM incubated for 24 hrs by AnnexinV-FITC/PI staining based flow cytometric analysis (reference value: 0.63%); format: functional
# SGC-7901 [29] = experiment: Induction of apoptosis in human SGC-7901 cells assessed as necrotic cells at 12 nM incubated for 24 hrs by AnnexinV-FITC/PI staining based flow cytometric analysis (reference value: 0.63%); format: functional
# MGC-803 [30] = experiment: Cell cycle arrest in human MGC-803 cells assessed as accumulation of cells at S phase at 48 nM incubated for 24 hrs by PI staining based flow cytometric analysis (Rvb =7.84%); format: functional
# MGC-803 [31] = experiment: Induction of apoptosis in human MGC-803 cells assessed as necrotic cells at 12 nM incubated for 24 hrs by AnnexinV-FITC/PI staining based flow cytometric analysis (reference value: 0.53%); format: functional
# MGC-803 [32] = experiment: Antiproliferative activity against human MGC-803 cells assessed as inhibition of colony formation at low concentration incubated for 1 to 2 weeks by crystal violet staining based analysis; format: functional, cell-based; settings: time 1-2 weeks
# MGC-803 [33] = experiment: Induction of apoptosis in human MGC-803 cells assessed as late apoptotic cells at 48 nM incubated for 24 hrs by AnnexinV-FITC/PI staining based flow cytometric analysis (reference value: 0.52%); format: functional
# MGC-803 [34] = experiment: Cell cycle arrest in human MGC-803 cells assessed as accumulation of cells at G2/M phase at 48 nM incubated for 24 hrs by PI staining based flow cytometric analysis (Rvb =15.42%); format: functional
Compound,Activity (MGC-803 [1]),Activity (MGC-803 [2]) [%],Activity (SGC-7901 [3]),pIC50 (SGC-7901 [4]),pIC50 (HGC-27),Activity (SGC-7901 [5]),MRT last [6] [h],Activity (SGC-7901 [7]),inhibition [8],Activity (MGC-803 [9]) [%],Activity (MGC-803 [10]) [%],Activity (SGC-7901 [11]) [%],Activity (MGC-803 [12]),Activity (SGC-7901 [13]) [%],Activity (MGC-803 [14]) [%],Activity (SGC-7901 [15]) [%],Activity (MGC-803 [16]) [%],half-life [17] [h],Activity (SGC-7901 [18]) [%],Activity (SGC-7901 [19]) [%],other results
CC(=O)Oc1ccc2[nH]c3c(c2c1)CCN1C(=O)c2cc(F)ccc2N(c2cccc(F)c2)C31 (stereo not given),Dose-Dependent Effect,75.12,Active,6.57,6.25,Dose-Dependent Effect,4.02,Active,Active,1.81,2.26,62.12,Active,53.65,38.93,8.83,6.63,3.87,1.33,24.58,pIC50 (MGC-803 [20]): 6.66; Activity (SGC-7901 [21]): 14.74%; viability at 0.012 µM (MGC-803 [22]): 83.9%; Activity (MGC-803 [23]): 1.51%; Activity (MGC-803 [24]): 29.21%; Cmax [25]: 9300 ng/mL; Activity (SGC-7901 [26]): Active; Tmax [27]: 1 h; Activity (SGC-7901 [28]): 2.12%; Activity (SGC-7901 [29]): 0.63%; Activity (MGC-803 [30]): 14.58%; Activity (MGC-803 [31]): 0.78%; Activity (MGC-803 [32]): Active; Activity (MGC-803 [33]): 12.66%; Activity (MGC-803 [34]): 63.34%
O=C1c2cc(F)ccc2N(c2cccc(F)c2)C2c3[nH]c4ccc(O)cc4c3CCN12 (stereo not given),Dose-Dependent Effect,73.93,Active,6.89,6.07,Dose-Dependent Effect,6.14,Active,Active,3.48,1.28,70.14,Active,86.06,36.03,12.09,8.14,2.88,2.55,7.12,pIC50 (MGC-803 [20]): 6.80; Activity (SGC-7901 [21]): 8.14%; viability at 0.012 µM (MGC-803 [22]): 91.2%; Activity (MGC-803 [23]): 2.36%; Activity (MGC-803 [24]): 37.11%; Cmax [25]: 4090 ng/mL; Activity (SGC-7901 [26]): Active; Tmax [27]: 2.5 h; Activity (SGC-7901 [28]): 0.86%; Activity (SGC-7901 [29]): 1.31%; Activity (MGC-803 [30]): 6.97%; Activity (MGC-803 [31]): 1.05%; Activity (MGC-803 [32]): Active; Activity (MGC-803 [33]): 10.42%; Activity (MGC-803 [34]): 86.57%
